# Source: patent US8013153B2, “Substituted pyrimidine kinase inhibitors” (Janssen Pharmaceutica, N.V., priority 2006, dated 2011)
# “Also recorded” adds a separate entry of the source.
# What was measured:
# murine Aurora-A = target: T1, murine Aurora-A (Mus musculus, UniProt P97477); assay: Aurora-A Screening Assay; format: biochemical
# T1 construct: replaced with the full length protein encoding the murine Aurora-A; made in house; host or cells: sf9 insect cells
# T1 sequence (P97477 1-395): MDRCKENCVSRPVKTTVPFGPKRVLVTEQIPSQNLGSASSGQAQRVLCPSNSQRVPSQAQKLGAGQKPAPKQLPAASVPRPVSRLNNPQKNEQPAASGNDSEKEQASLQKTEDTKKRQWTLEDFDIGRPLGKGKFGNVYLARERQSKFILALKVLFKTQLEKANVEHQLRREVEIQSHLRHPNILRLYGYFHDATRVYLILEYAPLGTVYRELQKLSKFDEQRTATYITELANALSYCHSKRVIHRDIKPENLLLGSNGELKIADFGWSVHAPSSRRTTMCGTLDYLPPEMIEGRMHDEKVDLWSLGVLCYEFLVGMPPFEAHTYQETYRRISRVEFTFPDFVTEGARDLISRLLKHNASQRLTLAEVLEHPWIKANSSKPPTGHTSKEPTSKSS
# A375 human skin melanoma = assay: In vivo inhibition of tumor growth, A375 model; design: species or system athymic nude mice
# Source text: (§1) Female Nu/Nu˜nuBR athymic nude mice (obtained from Charles River Laboratories), at the age of 5-6 weeks were feed water and an irradiated standard rodent diet ad libitum, and housed in specific pathogen-free conditions, according to the guidelines of the American Association for Accreditation of Lab Animal Care (AALAC).
# Mice were implanted subcutaneously in the right hind flank with the various tumor cell suspensions in HBSS containing 10% FBS: A431 human epidermoid carcinoma (4×10^6 cells/mouse), HCT116 human colorectal carcinoma (4×10^6 cells/mouse) and A375 human skin melanoma (2×10^6 cells/mouse).
# The A431 epidermoid carcinoma cell line was chosen due to its ability to secrete VEGF in culture and its dependency on VEGF for angiogenesis and growth in vivo (Viloria-Petit A, Crombet T, Jothy S, et al. (2001) Cancer Res 61: 5090-5101). The HCT116 colon carcinoma cell line is dependent on the expression of VEGF to form tumors in nude mice (Okada F, Rak J, St. Croix B, et al. (1998) Proc Natl Acad Sci USA 95: 3609-3614). […]
# In the A375 model, Compound 50 was administered at 100 mg/kg, qd. Treatment ended after 28 days, then tumor growth delay was analyzed to day 60.
# (§2) The tumors were allowed to establish growth for 10 to 14 days. Tumor size was measured every 3 days. […]
# (§3) Tumor measurements and body weights were recorded individually (2×/week) during the treatment period of the experiment. Tumors were measured using a digital caliper. Data was recorded/calculated using Study Director software (StudyLog Systems, Inc.) and graphs were created in GraphPad Prizm.
# The volume of each tumor in an animal was calculated according to the formula: (D×d^2)/2, where the diameters were determined from two orthogonal measurements on each tumor. The mean tumor volume was determined by averaging all tumor volumes in each group. The mean body weight was determined by averaging all body weights in each group.
# The standard deviation was calculated according to the formula (where x was the tumor volume): [Σx^2−((Σx)2/n)]/n−1 […]
# V600E Raf mutant = V600E Raf mutant (Homo sapiens, UniProt P15056, V600E); assay: RAF Kinase Screening Assay (V600E Raf mutant); settings: Compound 50 tested at 30 μM
# HER2 cytoplasmic domain = target: T2, HER2 cytoplasmic domain (Homo sapiens, UniProt P04626); assay: HER2 Kinase Screening Assay; format: biochemical; settings: > means no observed 50% inhibition at the indicated test concentration; ~ means approximately 50% inhibition at that concentration
# T2 construct: polyhistidine (N)
# [1] = system: HeLa cervical adenocarcinoma; assay: Inhibition of in vitro cell proliferation (HeLa); format: cell-based, human; settings: Homo sapiens, 14C-thymidine incorporation;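 also: cells exposed to compound for 24 h, then labelled 24 h with methyl 14C-thymidine, with uptake into DNA counted by scintillation against DMSO-only control wells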
# [2] = system: HCT116 human colorectal carcinoma; assay: In vivo inhibition of tumor growth, HCT116 model; design: species or system athymic nude mice; settings: 10 mg/kg daily, oral
# Source text: as §1
# Mice were implanted subcutaneously in the right hind flank with the various tumor cell suspensions in HBSS containing 10% FBS: A431 human epidermoid carcinoma (4×10^6 cells/mouse), HCT116 human colorectal carcinoma (4×10^6 cells/mouse) and A375 human skin melanoma (2×10^6 cells/mouse). […]
# as §2, §3
# The volume of each tumor in an animal was calculated according to the formula: (D×d^2)/2, where the diameters were determined from two orthogonal measurements on each tumor. The mean tumor volume was determined by averaging all tumor volumes in each group. The mean body weight was determined by averaging all body weights in each group. […]
# [3] = system: Human Umbilical Vein Endothelial Cells (HUVEC); assay: VEGF Mediated Cell Migration Assay; format: cell-based; settings: VEGF 10 ng/mL, VEGF control = 100%
# V600E Raf mutant, sequence (P15056 whole entry V600E, the tested form may be a part): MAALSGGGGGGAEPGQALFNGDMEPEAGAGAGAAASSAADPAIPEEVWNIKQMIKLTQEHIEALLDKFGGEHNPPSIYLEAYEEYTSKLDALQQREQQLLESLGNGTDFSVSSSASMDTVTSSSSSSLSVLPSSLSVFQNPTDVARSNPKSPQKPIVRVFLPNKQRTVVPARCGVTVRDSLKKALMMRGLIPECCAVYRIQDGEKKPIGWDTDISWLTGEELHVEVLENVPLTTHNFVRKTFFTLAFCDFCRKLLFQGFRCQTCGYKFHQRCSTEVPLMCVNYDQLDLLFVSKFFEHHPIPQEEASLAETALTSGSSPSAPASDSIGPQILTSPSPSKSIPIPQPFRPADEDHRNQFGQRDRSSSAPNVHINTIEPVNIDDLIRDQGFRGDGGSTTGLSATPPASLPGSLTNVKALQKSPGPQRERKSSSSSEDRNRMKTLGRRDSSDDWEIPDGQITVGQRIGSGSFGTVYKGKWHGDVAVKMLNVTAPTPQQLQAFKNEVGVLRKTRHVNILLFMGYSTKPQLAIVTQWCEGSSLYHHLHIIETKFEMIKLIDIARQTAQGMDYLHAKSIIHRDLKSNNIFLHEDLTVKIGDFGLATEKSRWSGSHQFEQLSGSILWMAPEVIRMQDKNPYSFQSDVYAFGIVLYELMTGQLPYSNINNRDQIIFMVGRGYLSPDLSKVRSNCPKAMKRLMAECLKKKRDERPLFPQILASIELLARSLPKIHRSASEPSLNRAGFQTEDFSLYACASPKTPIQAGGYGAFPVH
# T2 sequence (P04626 676-1255 limits assumed): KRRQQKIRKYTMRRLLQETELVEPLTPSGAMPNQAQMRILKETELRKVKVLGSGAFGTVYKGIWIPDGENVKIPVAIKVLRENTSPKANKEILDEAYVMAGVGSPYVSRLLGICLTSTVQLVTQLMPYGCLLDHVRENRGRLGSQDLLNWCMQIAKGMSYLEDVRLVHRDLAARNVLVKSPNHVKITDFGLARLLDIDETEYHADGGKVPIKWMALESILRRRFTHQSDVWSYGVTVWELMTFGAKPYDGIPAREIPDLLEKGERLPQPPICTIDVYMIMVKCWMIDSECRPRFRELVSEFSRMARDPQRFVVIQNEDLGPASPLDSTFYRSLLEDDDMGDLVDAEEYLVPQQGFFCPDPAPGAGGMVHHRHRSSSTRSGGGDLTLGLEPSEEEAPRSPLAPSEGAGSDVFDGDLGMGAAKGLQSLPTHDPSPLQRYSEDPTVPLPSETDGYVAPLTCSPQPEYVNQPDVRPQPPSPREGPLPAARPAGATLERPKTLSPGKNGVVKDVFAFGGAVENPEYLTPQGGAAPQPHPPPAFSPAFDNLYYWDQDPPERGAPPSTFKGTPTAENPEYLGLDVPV
compound,measurement,setting,value
"CCNC(=O)Nc1ccc(Oc2ncnc(N)c2/C=N/OC)cc1Cl [Cpd 50, 1-{4-[6-amino-5-(methoxyimino-methyl)-pyrimidin-4-yloxy]-2-chloro-phenyl}-3-ethyl-urea]",IC50,murine Aurora-A,> 100 µM
same,tumor growth delay maintained after completion of treatment,A375 human skin melanoma; 100 mg/kg qd for 28 days,3 weeks
same,body weights of treated animals,"A375 human skin melanoma; 28 days of continuous dosing, 100 mg/kg",comparable to the control group
same,inhibition of growth,"A375 human skin melanoma; daily doses of 100 mg/kg, oral, 28 days",90%
same,activity against the V600E Raf mutant,V600E Raf mutant,no activity; also recorded: not active
same,IC50,HER2 cytoplasmic domain,> 100 µM
same,IC50,[1],3.57 µM
same,inhibition of tumor growth,[2],< 50%
same,% Stimulation of cell migration,[3]; 50 nM,82%
same,% Stimulation of cell migration,[3]; 100 nM,60%
same,% Stimulation of cell migration,[3]; 500 nM,59%
same,% Stimulation of cell migration,[3]; 1 μM,34.5%
